Experimental data from the METLIN SMRT retention time set (Domingo-Almenara et al. 2019).

Assay: gradient 5% acetonitrile 3 min, to 50% in 2 min, to 85% in 15 min, held 3 min, 100 µL/min
Settings: column: Zorbax Extend-C18 2.1 x 50 mm; eluents: water / acetonitrile, 0.1% formic acid
Summary of the method: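 Standards, all pure, were combined into mixtures of ~100 molecules and run at 100 μL/min on a Zorbax Extend-C18 column (2.1 × 50 mm, 1.8 μm) with water and acetonitrile, each containing 0.1% formic acid. A coupled quadrupole time-of-flight mass spectrometer operated in positive and negative ionization mode. Retention time values come from computationally picked adduct peaks, each inspected manually.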

RP-LC retention time | Compound
892 s | Cc1[nH]c(C(=O)N2CCCC(C(=O)NCCCc3ccccc3)C2)c(C)c1C(=O)OC(C)C (stereo not drawn)
1060 s | Cc1ccc(Cc2nc(C3CC(=O)N(c4ccc(Cl)cc4)C3)no2)cc1 (stereo not drawn)
759 s | Cc1ccc(Cc2nc(-c3ccc(-n4ccnc4)nc3)no2)cc1
679 s | COC(=O)c1ccc(NC(=O)N2CCOc3ccc(C)cc32)cc1
684 s | O=C(CSc1ncc(CO)n1Cc1ccccc1)N1CCCc2ccccc21
674 s | Cc1ccc2oc(-c3nnc(C(=O)NCCN4CCC(C)CC4)o3)c(C)c2c1
1080 s | Cc1cc(=O)n(CC(=O)Nc2cccc(Cl)c2)c(-c2ccccc2)n1
1340 s | CC(C)(C)c1csc(-c2csc(S(=O)(=O)N3CCCCCC3)c2)n1
970 s | COCCn1cc(C(=O)Nc2cccc(F)c2)c2nn(-c3ccccc3)c(=O)c-2c1
989 s | CCCn1cc(S(=O)(=O)Nc2ccc(F)cc2Cl)c2cccnc21
628 s | CCc1nc2cc(N3CCC(C(=O)NC(C)c4ccccn4)CC3)cnc2nc1CC (stereo not drawn)
619 s | Cc1ccc2[nH]c(=O)c(CCC(=O)N3CCN(C4CCCCC4)CC3)cc2c1
633 s | Cc1ccn2c(NC(=O)c3cccs3)c(-c3ccccc3)nc2c1
1010 s | Cc1nn2c(CNS(=O)(=O)c3ccc(C(C)C)cc3)c(-c3ccccc3)nc2s1
977 s | CCn1c(=O)c2cc(C(=O)Nc3cccc(C(=O)OC)c3)nn2c2ccccc21
726 s | CCCC(=O)Nc1ccc2c(c1)CN(C(=O)c1cc(F)ccc1Cl)C(C(=O)N(C)C)C2 (stereo not drawn)

RP-LC retention time | Compound
767 s | CCS(=O)(=O)N1CCC2(CC1)NC(=O)N(Cc1ccc(Cl)cc1)C2=O
926 s | Cn1c(=O)sc2cc(S(=O)(=O)N3CCC(C(=O)Nc4ccc(Cl)cc4)CC3)ccc21
751 s | CCN1C(=O)c2ccccc2Oc2ccc(C(=O)NC3CC3)cc21
911 s | Cc1ccc(CCNC(=O)C2CCCN(C(=O)c3cc4sccc4n3C)C2)cc1 (stereo not drawn)
1360 s | O=C(Nc1ccc(Cl)cc1Cl)c1ccc(Br)cc1F
578 s | O=C(C1COc2ccccc2O1)N1CCN(Cc2nc3ccccc3[nH]2)CC1 (stereo not drawn)
624 s | COc1cc2c(cc1OC)C(C(=O)NCCCN1CCC(C)CC1)C1c3ccccc3CCN1C2=O (stereo not drawn)
904 s | CCN1C(=O)COc2ccc(-c3noc(CNS(=O)(=O)c4ccc(Cl)cc4)n3)cc21
1120 s | CC(C)c1nc(-c2ccc(OC3CCN(C(=O)C4(c5ccccc5)CC4)C3)cc2)no1 (stereo not drawn)
922 s | Cc1ccccc1CNC(=O)C1CCCN(c2ccc(=O)n(-c3cccc(Cl)c3)n2)C1 (stereo not drawn)
733 s | O=C(NCc1ccco1)c1ccc(Nc2c(-c3ccccc3)nc3cnccn23)cc1
1040 s | CCS(=O)(=O)N1CCCc2cc(C(=O)Nc3cccc(Br)c3)ccc21
954 s | COC(=O)c1ccc(N2C=C(C#N)S(=O)(=O)c3ccc(Cl)cc32)cc1
591 s | CCN(CC)CCNC(=O)CC1Sc2ccccc2NC1=O (stereo not drawn)
818 s | O=C(Nc1ccc(OCC(=O)N2CCN(c3ccccc3Cl)CC2)nc1)C1CC1

The next lines start with the compound.

Compound | RP-LC retention time
O=C(NC1CC1)C1CCN(S(=O)(=O)c2ccc(-c3noc(C4CC4)n3)cc2)CC1 | 803 s
COc1cccc(-c2nc(C3CCN(S(=O)(=O)c4cccc(Cl)c4)CC3)no2)c1 | 1160 s
CC(C)c1ccc(CNC(=O)C2CCCN(c3cc(=O)n(C)c(=O)n3C)C2)cc1 (stereo not drawn) | 781 s
COCCNC(=O)c1cc2c(s1)CCN(C(C)=O)C2 | 588 s
CCc1nn(CC)c(=O)c2cc(S(=O)(=O)N3CCC(Cc4ccccc4)CC3)cn12 | 1140 s
CSc1ccc(-c2nc3nc(C)cc(C)n3c2Nc2ccc(C)cc2)cc1 | 810 s
CCCN(C(=O)CC)c1nc(-c2ccccc2)cs1 | 1210 s
O=C(NCCc1csc(C2CCCN(C(=O)C3CCCCC3)C2)n1)C1CC1 (stereo not drawn) | 760 s
CC(C)Cn1cc(NC(=O)N2CCN(c3ccccn3)CC2)c2ccccc2c1=O | 573 s
O=c1ccn(-c2ccc(F)c(F)c2)nc1-c1nc(-c2cccc(F)c2)no1 | 923 s
CC(C)c1nc(N(C)Cc2ccccc2)ncc1C(=O)O | 1030 s
COC(=O)c1c(NCc2cccc(OC)c2)c2cc(Cl)ccc2[nH]c1=O | 816 s
NC(=O)c1ccc(Oc2ccc(C(N)=O)cc2)cc1 | 654 s
Cc1ccc(-n2nc3c(=O)n(CCCC(=O)N4CCC(C(N)=O)CC4)nc(C)c3c2C)cc1 | 648 s
C=CCN(CC=C)c1nc(-c2ccccc2)nc2ccccc12 | 770 s
Cc1cc(C)cc(-c2nc(-c3ccc4c(c3)nnn4CCC(=O)N3CCCC3)no2)c1 | 1090 s
O=C(c1nc(Cn2nc(-c3ccc(F)cc3)ccc2=O)no1)N1CCCC1 | 900 s
CN(CC(=O)N1CCN(c2cccc(Cl)c2)CC1)S(=O)(=O)c1c[nH]c(C(=O)N2CCCC2)c1 | 834 s
COc1cc(NC(=O)C2Nc3cc(F)ccc3S(=O)(=O)N2)cc(OC)c1OC (stereo not drawn) | 718 s

Compound | RP-LC retention time
COCCN1CC(CO)C2(CCN(Cc3cccc(Cl)c3)CC2)C1 (stereo not drawn) | 531 s
CN(C)CCNC(=O)c1ccc(CS(=O)(=O)c2c(Cl)cccc2Cl)o1 | 595 s
Cc1ccc(NC(=O)Cn2nc(N3CCC(C)CC3)c3ccccc3c2=O)c(C)c1 | 1160 s
O=C(Cc1c(F)cccc1Cl)NC1CCN(c2cc(-c3ccccc3)[nH]n2)C1 (stereo not drawn) | 638 s
CCn1c(=O)sc2cc(S(=O)(=O)N3CCC(C(=O)Nc4ccc5c(c4)OCO5)CC3)ccc21 | 863 s
FC(F)c1nc2ccccc2n1-c1nc(N2CCOCC2)nc(N2CCOCC2)n1 | 938 s
COc1ccc(NC(=O)Cn2c(=O)c3cc(C4CC4)nn3c3ncccc32)c(OC)c1 | 772 s
O=C(NC1CC1)c1cccc2c1CCN2C(=O)c1ccc(F)cc1 | 739 s
CCN(CC)CCNC(=O)CCc1c(-c2ccc(Cl)cc2)nc2ccccn12 | 558 s
CCCNC(=O)C1CCCN(C(=O)c2[nH]c(C)c(C)c2C)C1 (stereo not drawn) | 721 s
Cc1ccc2[nH]cc(CCNC(=O)Nc3ccc(Cl)c(Cl)c3)c2c1 | 1050 s
Cc1[nH]c(C(=O)N2CCC(CC(=O)NCCCN3CCN(c4ccc(F)cc4)CC3)CC2)c(C)c1C | 675 s
O=C(c1ccc(Cl)cc1)N1CCN(S(=O)(=O)c2cc3c4c(c2)CCC(=O)N4CCC3)CC1 | 838 s
CCOc1ccc2cccc(NC(=O)C3CCN(S(C)(=O)=O)CC3)c2n1 | 864 s
COc1cc([C@@H]2c3cc4c(cc3[C@H](O)[C@@H](CO)[C@@H]2C(=O)NCc2cccc(C(F)(F)F)c2)OCO4)cc(OC)c1OC | 783 s
CC1=C2C(=O)[C@H]3[C@@H](CC=C4C[C@@H](O)CC[C@@]43C)[C@@H]2CC[C@]12O[C@@H]1C[C@H](C)CN[C@H]1C2C (stereo partly drawn) | 699 s
Cc1nc(C(=O)Nc2ccccc2)c(C)n1C1CCN(S(C)(=O)=O)CC1 | 648 s
COc1ccccc1CCNC(=O)Cn1ccc2ccccc21 | 891 s
CCC(CC)C(=O)N1CCN(c2nc3cccnc3n(CC)c2=O)CC1 | 942 s

Compound | RP-LC retention time
CCn1cc2c3c(cccc31)CN(C(=O)Nc1cccc(Cl)c1F)CC2 | 1060 s
Cc1ccc(-c2nc3ncccn3c2NCc2ccc(F)cc2)cc1 | 755 s
CCOC1CCOC2(CCN(C(=O)c3ccco3)CC2)C1 (stereo not drawn) | 691 s
COc1ccc(Cc2nc(-c3cccc(-c4ccn[nH]4)c3)no2)cc1Cl | 963 s
COC(=O)C(Cc1ccccc1)NC(=O)Nc1cccn2c(C)nnc12 (stereo not drawn) | 685 s
O=c1oc2cc(O)ccc2s1 | 771 s
O=C(NC1CCCC1)c1nc(Nc2ccc(F)cc2)c2ccccc2n1 | 824 s
CCCn1ccc2sc(C)c(C(=O)NCc3ccc(F)cc3F)c2c1=O | 925 s
COc1ccc(Cn2nc3c(S(=O)(=O)N4CCCCCC4)cccn3c2=O)cc1 | 909 s
CC(C)CN1C(=O)c2ccccc2C(C(=O)N2CCN(c3ccccn3)CC2)C1c1cccs1 (stereo not drawn) | 674 s
O=C(NCc1cccnc1)C1c2ccccc2C(=O)N(C2CCCC2)C12CCCCC2 (stereo not drawn) | 677 s
O=C(NC1CC1)c1cc2cc(Cl)ccc2[nH]1 | 809 s
O=C(Nc1ccc2ccccc2c1)N1CCN(c2ncc(C(F)(F)F)cc2Cl)CC1 | 1110 s
CCc1nnc(-c2cn(CC(=O)NC3CCCCCC3)c3ccccc23)o1 | 790 s
CCOC(=O)c1cccc(NS(=O)(=O)c2cc(-c3cc(C)[nH]n3)ccc2C)c1 | 866 s
COC(=O)c1cccc(NC(=O)c2cnc(-c3ccc(F)cc3)nc2-c2ccncc2)c1 | 912 s
O=C(NCCn1cnc2cc(C(=O)N3CCCC3)ccc21)Nc1ccc2c(c1)CCC2 | 645 s
CNC(=O)[C@@H]1CN(C(=O)CCc2cc(OC)no2)C[C@H]1c1n[nH]c(C)n1 | 553 s
CCn1cnc2cc(-c3noc(C4CC(=O)N(c5ccc(C)cc5)C4)n3)ccc21 (stereo not drawn) | 700 s
